The values below are quoted from earlier work in US20060275372A1 (Elan Pharma International Limited, priority 2005, published 2006).

Each structure is given as a SMILES string. Counter-ions that a name gives are not always drawn.

For the data set the following is noted: fasting state as compared to the fed state.

With `Cc1ccc(NC(=O)c2ccc(CN3CCN(C)CC3)cc2)cc1Nc1nccc(-c2cccnc2)n1` [Imatinib mesylate, 4-[(4-Methyl-1-piperazinyl)methyl]-N-[4-methyl-3-[[4-(3-pyridinyl)-2-pyrimidinyl]amino]-phenyl]benzamide methanesulfonate], the bioavailability entry is recorded as “limited bioavailability”.
